Measured values from ChEMBL document CHEMBL3137381, “MMV Box Onchocerca lienalis screening set”.

How the values were obtained:
Format in all cases: functional
[1] = system: Onchocerca lienalis; assay: MMV: Percent motility assay at a compound concentration of 1.25e-5 M. Activity score legend: 3: Active, 2: Moderately active; 1: Inactive, 0: Toxic; conditions: at 12.5 µM
[2] = system: Onchocerca lienalis; assay: MMV: Percent motility assay at a compound concentration of 3.1e-6 M. Activity score legend: 3: Active, 2: Moderately active; 1: Inactive, 0: Toxic; conditions: at 3.1 µM
[3] = system: Onchocerca lienalis; assay: MMV: Percent motility assay at a compound concentration of 1.9e-7 M. Activity score legend: 3: Active, 2: Moderately active; 1: Inactive, 0: Toxic; conditions: at 0.19 µM
[4] = system: Onchocerca lienalis; assay: MMV: Percent motility assay at a compound concentration of 7.8e-7 M. Activity score legend: 3: Active, 2: Moderately active; 1: Inactive, 0: Toxic; conditions: at 0.78 µM

SMILES | Motility [1] [%] | Motility [2] [%] | Motility [3] [%] | Motility [4] [%]
O=C(Nc1ccc(Cl)c(Cl)c1)Nc1ccc(Cl)c(Cl)c1 | 100 | 100 | 100 | 100
COc1ccc(C2c3ccc4ccccc4c3Oc3ncn(CCCN(C)C)c(=N)c32)cc1 (centres undefined) | 100 | 100 | 100 | 100
N=c1n(CCN2CCCCC2)c2ccccc2n1CC(=O)c1ccc(Cl)c(Cl)c1 | 100 | 100 | 100 | 100
Nc1nc(Nc2cccc(F)c2)nc2ccccc12 | 100 | 100 | 100 | 100
COc1ccc(/C=C2/SC(=Nc3ccccc3)NC2=O)cc1 | 100 | 100 | 100 | 100
COc1ccc(-c2nc(N3CCN(C(=O)C4CCCCC4)CC3)c3c4c(sc3n2)CCCC4)cc1 | 100 | 100 | 100 | 100
O=C(NC1CCN(Cc2ccccc2)CC1)c1cc2nc(-c3ccc(Cl)s3)cc(C(F)(F)F)n2n1 | 100 | 100 | 100 | 100
Cc1sc(NC(=O)c2ccccc2)c(C(c2cccs2)N2CCN(c3ccccc3)CC2)c1C (centres undefined) | 100 | 100 | 100 | 100
Cc1sc(NC(=O)c2ccco2)c(C(c2cccnc2)N2CCC(Cc3ccccc3)CC2)c1C (centres undefined) | 100 | 100 | 100 | 100
CCOC(=O)c1c(C)n(-c2ccccc2)c2ccc(OC(=O)c3cc(OC)c(OC)c(OC)c3)cc12 | 100 | 100 | 100 | 100
COc1cc(C(=O)Nc2nc3c(cc4c5c(cccc53)CC4)s2)cc(OC)c1OC | 100 | 100 | 100 | 100
COc1ccc(CCN2C(=O)c3[nH]nc(-c4cc(Cl)c(C)cc4O)c3C2c2ccccc2F)cc1 (centres undefined) | 100 | 100 | 100 | 100
N#Cc1nc(Cc2cccc3ccccc23)oc1N1CCN(C(c2ccccc2)c2ccccc2)CC1 | 100 | 100 | 100 | 100
COc1cc(C(=O)Nc2ccc(-c3nc4ccccc4[nH]3)cc2)cc(OC)c1OC | 100 | 100 | 100 | 100
CCOc1ccc(N2C(N)=NC(N)=NC2(C)C)cc1.Cl | 100 | 100 | 100 | 100
COc1cccc(Nc2nc(N)c3ccccc3n2)c1.Cl | 100 | 100 | 100 | 100
Cc1ccc(C(=O)c2oc3ccc4c(C)cc(=O)oc4c3c2C)cc1 | 100 | 100 | 100 | 100
CCCCCCc1cc2cc(-c3csc(C=Cc4ccccc4)n3)c(=O)oc2cc1O | 100 | 100 | 100 | 100
O=C(CCl)NCCOc1ccc(Cl)cc1Cl | 100 | 100 | 100 | 100
Oc1ccc(-c2nc(-c3ccc4oc5ccc(-c6[nH]c(-c7ccc(O)cc7)nc6-c6ccccc6)cc5c4c3)c(-c3ccccc3)[nH]2)cc1 | 100 | 100 | 100 | 100
CCOc1ccc(CN2CCN(CC(O)COc3ccc(OCC(O)CN4CCN(Cc5ccc(OCC)cc5)CC4)cc3)CC2)cc1 (centres undefined) | 100 | 100 | 100 | 100
CCCCNc1nc(NC(C)(C)C)nc(NC(C)(C)C)n1 | 100 | 100 | 100 | 100
COc1ccc(CNC(=O)c2cc3c(=O)n4ccccc4nc3n(CCc3ccccc3)c2=N)cc1 | 100 | 100 | 100 | 100
COc1ccc(CCn2c(=N)c(C(=O)NCc3cccnc3)cc3c(=O)n4cccc(C)c4nc32)cc1 | 100 | 100 | 100 | 100
Cl.Cn1c(=O)n(C)c2cc(CNCCNc3ccnc4cc(Cl)ccc34)ccc21 | 100 | 100 | 100 | 100
CCOc1ccc2nc(C)cc(Nc3ccc(N(C)C)cc3)c2c1.Cl | 100 | 100 | 100 | 100

SMILES | Motility [1] [%] | Motility [2] [%] | Motility [3] [%] | Motility [4] [%]
COc1ccc(Nc2cc(C)nc(NCc3ccccc3)n2)cc1 | 66.66 | 100 | 100 | 100
COc1ccc(C=C2SC(Nc3ccc(F)cc3)=NC2=O)c(OC)c1 | 100 | 100 | 100 | 100
Oc1ccc2ccccc2c1CNc1nc2ccccc2[nH]1 | 100 | 100 | 100 | 100
O=C1c2ccc3c4c(ccc(c24)C(=O)N1CCCCO)C(=O)N(CCCCO)C3=O | 100 | 100 | 100 | 100
O=C(Nc1ccc(-c2nc3cc(NC(=O)c4ccc(Cl)cc4)ccc3[nH]2)cc1)c1ccc(Cl)cc1 | 100 | 100 | 100 | 100
CCOC(=O)c1cnc2ccc(OC)cc2c1Nc1ccc(N2CCN(C)CC2)cc1 | 100 | 100 | 100 | 100
COc1ccccc1C(=O)ON=C(N)Cc1cccc2ccccc12 | 100 | 100 | 100 | 100
COc1ccc(C(=O)C(CCC(CNC(C)(C)C)C(=O)c2ccc(OC)cc2)CNC(C)(C)C)cc1 (centres undefined) | 100 | 100 | 100 | 100
CN1C=C(c2ccc3ccccc3n2)C(c2c[nH]c3ccccc23)c2ccccc21 (centres undefined) | 33.33 | 100 | 100 | 100
Oc1c(C(Nc2ccccn2)c2cccc(Oc3ccccc3)c2)ccc2cccnc12 (centres undefined) | 6.66 | 100 | 100 | 100
COc1cc(-c2nc(-c3ccccc3)c(-c3ccccc3)[nH]2)cc(OC)c1O | 100 | 100 | 100 | 100
OC(CNC1CCCCC1)Cn1c2ccc(I)cc2c2cc(I)ccc21 (centres undefined) | 100 | 100 | 100 | 100
COc1cc(CNCCc2ccc(Cl)cc2)cc(OC)c1O | 100 | 100 | 100 | 100
Cc1ccc2c(C)nc(Nc3nc(C)cc(-c4ccccc4)n3)nc2c1 | 100 | 100 | 100 | 100
c1ccc(CNc2nc(Nc3ccccc3)nc3ccccc23)cc1 | 0 | 100 | 100 | 100
CCOc1ccc(Nc2ccnc3cc(Cl)ccc23)cc1 | 100 | 100 | 100 | 100
Oc1ccc(Br)cc1CN1CCN(Cc2ccc(Cl)cc2)CC1 | 100 | 100 | 100 | 100
CCOc1ccc2nc(C)cc(Nc3ccc(Br)cc3)c2c1 | 100 | 100 | 100 | 100
COc1cc2c3cc1Oc1c(OC)c(OC)cc4c1C(Cc1ccc(O)c(c1)Oc1ccc(cc1)CC3N(C)CC2)N(C)CC4.Cl (centres undefined) | 100 | 100 | 100 | 100
Br.Cc1ccc(C)c(-c2csc(Nc3ccc(C)c(C)c3)n2)c1 | 100 | 100 | 100 | 100
COc1ccc2sc(N(Cc3cccnc3)C(=O)c3ccc(C#N)cc3)nc2c1 | 100 | 100 | 100 | 100
CCOC(=O)c1cnc2ccc(OC)cc2c1NCc1ccccc1 | 100 | 100 | 100 | 100
CCOC(=O)C1=CN(C)C=C(C(=O)OCC)C1c1cc(Br)c(OCC)c(OC)c1 | 100 | 100 | 100 | 100
CC(C)(C)c1ccc(C2CC3=Nc4ccccc4N(C(=O)c4ccccc4Cl)C(c4ccc(F)cc4)C3=C(O)C2)cc1 (centres undefined) | 100 | 100 | 100 | 100
CN1CCN(c2nc(Nc3ccc(O)cc3)nc3ccccc23)CC1.Cl | 100 | 100 | 100 | 100
